Entries after “also recorded” stand apart in the source; their conditions may differ. Blank lines part the entries; values can stand above or below the compound they belong to.
What was measured:
[1] = Drying of selected materials under vacuum at 45° C., solid form checked by XRPD; format: physicochemical
Description: (§1) XRPD patterns were collected with a PANalytical X'Pert PRO MPD or Empyrean diffractometer using an incident beam of Cu radiation produced using an Optix long, fine-focus source. An elliptically graded multilayer mirror was used to focus Cu Ku X-ray radiation through the specimen and onto the detector. Prior to the analysis, a silicon specimen (NIST SRM 640e) was analyzed to verify the observed position of the Si (111) peak is consistent with the NIST-certified position. A specimen of the sample was sandwiched between 3-μm-thick films and analyzed in transmission geometry. A beam-stop, short antiscatter extension, and antiscatter knife-edge were used to minimize the background generated by air. Soller slits for the incident and diffracted beams were used to minimize broadening from axial divergence. Diffraction patterns were collected using a scanning position-sensitive detector (X'Celerator) located 240 mm from the specimen and Data Collector software v. 5.5.

glucokinase = target: T1, glucokinase (Homo sapiens, UniProt P35557); conditions: cited from earlier work
T1 sequence (P35557 1-465): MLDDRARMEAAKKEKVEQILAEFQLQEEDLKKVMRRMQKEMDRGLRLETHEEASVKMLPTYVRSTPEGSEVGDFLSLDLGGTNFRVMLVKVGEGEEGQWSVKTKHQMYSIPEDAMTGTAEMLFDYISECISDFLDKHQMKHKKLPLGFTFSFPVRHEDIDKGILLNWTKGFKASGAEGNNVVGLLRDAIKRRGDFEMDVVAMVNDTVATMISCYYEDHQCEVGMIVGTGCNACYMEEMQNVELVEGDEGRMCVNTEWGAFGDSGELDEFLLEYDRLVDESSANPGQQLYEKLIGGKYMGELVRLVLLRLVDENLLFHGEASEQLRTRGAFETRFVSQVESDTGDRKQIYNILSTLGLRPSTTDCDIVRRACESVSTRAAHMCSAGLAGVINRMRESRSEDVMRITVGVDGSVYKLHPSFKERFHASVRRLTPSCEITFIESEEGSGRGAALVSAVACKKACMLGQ

[2] = Stable form and hydrate screen via slurry-trituration experiments; format: physicochemical; conditions: anh. EtOH, 55° C., 7 d, brown suspension
Description: Slurry triburation experiments target the stable forms, including stable solvates and hydrates.
The slurry-trituration experiments were conducted by stirring solids of Compound I in specified solvents and solvent mixtures at various temperatures for 7 days (elevated temperature) or 14-18 days (ambient and sub-ambient temperatures). A summary of experimental conditions and results is detailed in Table 13.
as §1

[3] = Polymorph screen (evaporation, cooling, slurry, solvent/anti-solvent); format: physicochemical; conditions: EtOAc/HFIPA (36:64), stirred at 60° C. 1 d, FC to ice/water bath, FE w/N2 purge
Text: Solids of Compound I unless noted otherwise, was used as the starting material. Materials produced in the study were utilized for selected experiments.
Solutions of starting material were allowed to partially evaporate or evaporate to dryness at ambient or elevated temperature from open vials for fast evaporation (FE) or from vials covered with aluminum foil with pin holes for slow evaporation (SE). Prior to evaporation, solutions were filtered at ambient or elevated temperature using 0.2 μm nylon filters.
Solutions of starting material were prepared in specified solvents at elevated temperature using a hot plate for heating. These were typically hot-filtered through a 0.2 μm nylon filter into warm receiving vials. […]
XRPD patterns were collected with a PANalytical X'Pert PRO MPD or Empyrean diffractometer using an incident beam of Cu radiation produced using an Optix long, fine-focus source. […] Prior to the analysis, a silicon specimen (NIST SRM 640e) was analyzed to verify the observed position of the Si (111) peak is consistent with the NIST-certified position. A specimen of the sample was sandwiched between 3-μm-thick films and analyzed in transmission geometry. […]

[4] = Competitive slurry experiment in acetone among Form A, Form D, Form B and Form E, XRPD; format: physicochemical; conditions: for XRPD Results after competitive slurry of Forms A, D, B, E: acetone pre-saturated with Form A, 7 d, solids analyzed wet
Text: At each condition, similar amounts of solids from the four forms/materials were slurried in pre-saturated solutions at the examined temperature conditions for 7 days; solids were then isolated and analyzed wet by XRPD.
as §1

SMILES: CCCO[C@H]1CC[C@H](N(C(=O)Nc2ncc(SCC(=O)O)s2)C2CCCCC2)CC1 [Compound I Form E + minor Form A, {2-[3-cyclohexyl-3-(trans-4-propoxy-cyclohexyl)-ureido]-thiazol-5-ylsulfanyl}-acetic acid]
XRPD Results after drying ([1]; vacuum/45° C./1 d): Compound I Form B +

SMILES: CCCO[C@H]1CC[C@H](N(C(=O)Nc2ncc(SCC(=O)O)s2)C2CCCCC2)CC1 [Compound I Material G, {2-[3-cyclohexyl-3-(trans-4-propoxy-cyclohexyl)-ureido]-thiazol-5-ylsulfanyl}-acetic acid]
XRPD Results after drying ([1]; vacuum/45° C./1 d): disordered

SMILES: CCCO[C@H]1CC[C@H](N(C(=O)Nc2ncc(SCC(=O)O)s2)C2CCCCC2)CC1 [Compound I, {2-[3-cyclohexyl-3-(trans-4-propoxy-cyclohexyl)-ureido]-thiazol-5-ylsulfanyl}-acetic acid]
Glycemic control (glucokinase; oral, liver selective glucokinase activator): improves glycemic control
Adverse effects (hypoglycemia, dyslipidemia/increased TG, liver glycogen and TG, loss of efficacy) (glucokinase; therapeutically relevant doses, compared with other GK activators): does not cause similar adversarial effects; also recorded: may not induce hypoglycemia, dyslipidemia, or pathological increases of glycogen and TG in the liver
XRPD Result after slurry-trituration [2]: decomposed
XRPD Result after polymorph screen experiment [3]: decomposed

SMILES: CCCO[C@H]1CC[C@H](N(C(=O)Nc2ncc(SCC(=O)O)s2)C2CCCCC2)CC1 [Form A, {2-[3-cyclohexyl-3-(trans-4-propoxy-cyclohexyl)-ureido]-thiazol-5-ylsulfanyl}-acetic acid]
XRPD Results after competitive slurry of Forms A, D, B, E ([4]; 2-8° C.): Form A
XRPD Results after competitive slurry of Forms A, D, B, E ([4]; 45° C.): Form A
XRPD Results after competitive slurry of Forms A, D, B, E ([4]; RT): Form A
Relative stability among anhydrous forms A, B, D, E ([4]; within 2-8° C. to 45° C., based on competitive slurries): likely the most stable form

The next lines start with results.

Solid form change upon drying / desolvation [1]: desolvates into Form D
XRPD Results after drying ([1]; vacuum/45° C./1 h): Compound I Form D
XRPD Results after drying ([1]; vacuum/45° C./1 d, listed as Compound I Form C): Compound I Form D ±
SMILES: CCCO[C@H]1CC[C@H](N(C(=O)Nc2ncc(SCC(=O)O)s2)C2CCCCC2)CC1 [Form C, {2-[3-cyclohexyl-3-(trans-4-propoxy-cyclohexyl)-ureido]-thiazol-5-ylsulfanyl}-acetic acid]

Solid form change upon drying / desolvation [1]: converts to Form D upon drying
XRPD Results after drying ([1]; vacuum/45° C./3 d, listed as Compound I Form F): Compound I Form D
SMILES: CCCO[C@H]1CC[C@H](N(C(=O)Nc2ncc(SCC(=O)O)s2)C2CCCCC2)CC1 [Form F, {2-[3-cyclohexyl-3-(trans-4-propoxy-cyclohexyl)-ureido]-thiazol-5-ylsulfanyl}-acetic acid]

Solid form change upon drying / desolvation [1]: become disordered upon drying
XRPD Results after drying ([1]; vacuum/45° C./3 d, listed as Compound I Form G): disordered
SMILES: CCCO[C@H]1CC[C@H](N(C(=O)Nc2ncc(SCC(=O)O)s2)C2CCCCC2)CC1 [Form G, {2-[3-cyclohexyl-3-(trans-4-propoxy-cyclohexyl)-ureido]-thiazol-5-ylsulfanyl}-acetic acid]

Solid form change upon drying / desolvation [1]: become disordered upon drying
SMILES: CCCO[C@H]1CC[C@H](N(C(=O)Nc2ncc(SCC(=O)O)s2)C2CCCCC2)CC1 [Form H, {2-[3-cyclohexyl-3-(trans-4-propoxy-cyclohexyl)-ureido]-thiazol-5-ylsulfanyl}-acetic acid]

XRPD Results after drying ([1]; vacuum/45° C./1 d, listed as Compound I Form I): Compound I Form B
SMILES: CCCO[C@H]1CC[C@H](N(C(=O)Nc2ncc(SCC(=O)O)s2)C2CCCCC2)CC1 [Form I, {2-[3-cyclohexyl-3-(trans-4-propoxy-cyclohexyl)-ureido]-thiazol-5-ylsulfanyl}-acetic acid]
Solid form change upon drying / desolvation [1]: converts to Form E or solids similar to Form E upon drying
